Several values for one entry are separate records, joined by “and”; a condition that tells them apart may be missing. Equal entries are not always repeated.
Assays:
Assay type in all cases: cell-based
P. putida KT2440 = assay: Effect of pHCA on the growth of Pseudomonas putida KT2440; conditions: pHCA 25 g/L
Procedure: (§1) Liquid cultures of these strains were grown in 10 mL of LB medium containing 0.25% glucose and 10 mM MgSO4 in 50 mL screw-capped, glass tubes at 30° C. and 200 rpm in an incubator shaker. In all subsequent media, pHCA was added from a 60 g/L stock solution, which was adjusted to pH 7.0 using KOH and then filter-sterilized. Samples of each culture were streaked on LB agar plates containing 0.25% glucose, 10 mM MgSO4 and 30 g/L pHCA and grown at 30° C. Individual colonies taken from these plates were grown to stationary phase at 30° C. in 10 mL of LB medium containing 0.5% glucose, 10 mM MgSO4 and 25 g/L pHCA in 50 mL screw-capped, glass tubes. These stationary phase cultures were diluted 1:25 in fresh LB medium containing 0.5% glucose, 10 mM MgSO4 and either 0 or 25 g/L pHCA and grown in 50 mL screw-capped, glass tubes at 30° C. and 200 rpm in an incubator shaker. Cell growth in these cultures was monitored by taking aliquots and measuring the OD at 600 nm of the culture or dilutions of the culture, which were made with LB medium. These OD measurements were used to calculate the doubling time and growth rate as a percentage of growth observed in test medium without pHCA.

E. coli TY1 (DGL430) = assay: Effect of pHCA and pHS on growth and fermentation of E. coli, shake flasks
Procedure: This study was done using E. coli TY1 (DGL430), a tyrosine overproducing strain obtained from OmniGene Bioproducts, Inc. (Cambridge, Mass.). This strain also produces phenylalanine. The seed culture of this strain was propagated in a medium consisting of MgSO4.7H2O (0.5 g/L), (NH4)2SO4 (4 g/L), MOPS (20.9 g/L) and 10 mL of phosphate solution. The pH of the seed medium was adjusted to pH 6.8 and then the medium was steam-sterilized. The phosphate solution contained KH2PO4 (57.3 g/L) and K2HPO4 (110.2 g/L) and was adjusted to pH 6.8. The following solutions were then aseptically added to the seed medium to give the final concentration given in parentheses: thiamine (1 mg/L), glucose (1 g/L), lactose (15 g/L), 5 mL of a trace element solution, and tetracycline (5 mg/L). The trace element solution contained citric acid (10 g/L), CaCl2.2H2O (1.5 g/L), FeSO4.7H2O (5 g/L), ZnSO4.7H2O (0.39 g/L) and CuSO4.5H2O (0.38 g/L). The seed medium was inoculated from a frozen pre-seed culture and was grown in 250 mL baffled flasks in an Innova 4000 incubator shaker (New Brunswick Scientific Co., Edison, N.J.), incubated at 35° C. and 300 rpm for 12–16 h. One milliliter of this seed culture was used to inoculate each of the test cultures.
The test medium was 50 mL of an aqueous solution containing: (NH4)2SO4 (4 g), 1 mL of phosphate solution, MgSO4.7H2O (0.5 g), and MOPS (20.9 g), with the pH adjusted to 7.0. After sterilization of this medium, thiamine (1 mg/L), 5 mL of trace element solution, glucose (2 g/L), lactose (15 g/L), IPTG (0.5 mM), and tetracycline (10 mg/L) were aseptically added to give the final concentration given in parentheses. The 250 mL baffled flasks containing 50 mL of the test medium were inoculated with the seed culture and were incubated at 35° C. and 300 rpm for 42 h in the incubator shaker. Samples of the culture were taken at various times and the optical density at 550 nm (OD550) was measured spectrophotometrically. The pH of these samples was also measured. After completion of the fermentation, the tyrosine and phenylalanine concentrations in the culture were measured using HPLC, as described supra.
This experiment was repeated using pHS in place of pHCA.

P. putida NCIMB 9866 = assay: Effect of pHCA on the growth of Pseudomonas putida NCIMB 9866; conditions: pHCA 25 g/L
Procedure: as §1

[1] = adapted cells, LB medium, 30° C.
[2] = percentage of growth without pHCA

O=C(O)C=Cc1ccc(O)cc1 [pHCA, para-hydroxycinnamic acid]
Doubling Time (P. putida KT2440; [1]): 79 min | Growth Rate, % (P. putida KT2440; [2]): 21% | OD 550 (E. coli TY1 (DGL430); 17.5 h, pHCA added 1.00 g/L (as sodium pHCA)): 2.47 and 2.41 | OD 550 (E. coli TY1 (DGL430); 17.5 h, pHCA added 2.00 g/L): 1.49 and 1.27 | OD 550 (E. coli TY1 (DGL430); 17.5 h, pHCA added 4.00 g/L): 0.20 and 0.22 | OD 550 (E. coli TY1 (DGL430); 17.5 h, pHCA added 8.00 g/L): 0.15 | OD 550 (E. coli TY1 (DGL430); 17.5 h, pHCA added 16.00 g/L): 0.19 and 0.13 | OD 550 (E. coli TY1 (DGL430); 29 h, pHCA added 1.00 g/L): 3.22 and 3.57 | OD 550 (E. coli TY1 (DGL430); 29 h, pHCA added 2.00 g/L): 1.77 and 1.47 | OD 550 (E. coli TY1 (DGL430); 29 h, pHCA added 4.00 g/L): 1.21 and 1.61 | OD 550 (E. coli TY1 (DGL430); 29 h, pHCA added 8.00 g/L): 0.16 | OD 550 (E. coli TY1 (DGL430); 29 h, pHCA added 16.00 g/L): 0.21 and 0.13 | OD 550 (E. coli TY1 (DGL430); 42 h, pHCA added 1.00 g/L): 3.37 and 3.48 | OD 550 (E. coli TY1 (DGL430); 42 h, pHCA added 2.00 g/L): 1.62 and 1.53 | Phe (E. coli TY1 (DGL430); 42 h, pHCA added 2.00 g/L): 95 mg/L | Tyr (E. coli TY1 (DGL430); 42 h, pHCA added 2.00 g/L): 100 mg/L and 105 mg/L | OD 550 (E. coli TY1 (DGL430); 42 h, pHCA added 4.00 g/L): 1.54 and 1.55 | Phe (E. coli TY1 (DGL430); 42 h, pHCA added 4.00 g/L): 15 mg/L and 20 mg/L | Tyr (E. coli TY1 (DGL430); 42 h, pHCA added 4.00 g/L): 65 mg/L and 75 mg/L | OD 550 (E. coli TY1 (DGL430); 42 h, pHCA added 8.00 g/L): 0.18 and 0.17 | Phe (E. coli TY1 (DGL430); 42 h, pHCA added 8.00 g/L): 10 mg/L | Tyr (E. coli TY1 (DGL430); 42 h, pHCA added 8.00 g/L): 15 mg/L and 25 mg/L | OD 550 (E. coli TY1 (DGL430); 42 h, pHCA added 16.00 g/L): 0.23 and 0.14 | Phe (E. coli TY1 (DGL430); 42 h, pHCA added 16.00 g/L): 5 mg/L | Tyr (E. coli TY1 (DGL430); 42 h, pHCA added 16.00 g/L): 0 mg/L | Phe (E. coli TY1 (DGL430); 42 h, phenylalanine in culture, pHCA added 1.00 g/L): 150 mg/L and 155 mg/L | Tyr (E. coli TY1 (DGL430); 42 h, tyrosine in culture, pHCA added 1.00 g/L): 210 mg/L and 190 mg/L | concentration at which complete inhibition of growth / no growth was observed (E. coli TY1 (DGL430); E. coli TY1 shake flask): 8 g/L | concentration that inhibited cell growth (E. coli TY1 (DGL430); E. coli TY1 shake flask): 1 g/L | Doubling Time (P. putida NCIMB 9866; [1]): 105 min | Growth Rate, % (P. putida NCIMB 9866; [2]): 18%

Source: US7157256B2, “Method for producing para-hydroxystyrene and other multifunctional aromatic compounds using two-phase extractive fermentation” (E. I. du Pont de Nemours and Company, priority 2003, dated 2007)
